Reference: patent publication US20060148760A1, “Method for the sysnthesis of compounds of formula I and their uses thereof” (TransTech Pharma, priority 2000, published 2006)
Counter-ions that a name gives are not always drawn. Values belong to the compound of their own block, whether it stands above or below them.

Assays:
[1] = biological target: T1, Carboxymethyl Lysine (CML)/RAGE interaction (Homo sapiens, UniProt Q15109); experiment: ELISA assay, CML binding to sRAGE; conditions: plate-bound CML
T1 construct: generate soluble RAGE (sRAGE) comprised of the V and C domains
T1 sequence (Q15109 23-342 limits assumed): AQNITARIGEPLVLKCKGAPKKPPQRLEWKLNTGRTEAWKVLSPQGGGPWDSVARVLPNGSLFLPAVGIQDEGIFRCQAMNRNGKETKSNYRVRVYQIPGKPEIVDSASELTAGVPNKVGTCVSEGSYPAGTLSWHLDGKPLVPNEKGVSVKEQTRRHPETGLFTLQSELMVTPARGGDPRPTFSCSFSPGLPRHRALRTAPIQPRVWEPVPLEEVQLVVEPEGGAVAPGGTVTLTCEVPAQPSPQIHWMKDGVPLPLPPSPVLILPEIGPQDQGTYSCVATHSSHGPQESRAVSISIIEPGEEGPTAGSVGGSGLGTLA
Protocol: (§1) S100b, β-amyloid and CML (500 ng/100 μL/well) in 100 mM sodium bicarbonate/sodium carbonate buffer (pH 9.8) is loaded onto the wells of a NUNC Maxisorp flat bottom 96—well microtitre plate. The plate is incubated at 4° C. overnight. The wells are aspirated and treated with 50 mM imidazole buffer saline (pH 7.2) (with 1 mM CaCl2/MgCl2) containing 1% bovine serum albumin (BSA) (300 μL/well) for two h at 37° C.
(§2) Test compounds are dissolved in nanopure water (concentration: 10-100 μM). DMSO may be used as co-solvent. 25 μL of test compound solution in 2% DMSO is added, along with 75 μL sRAGE (4.0×10^−4 mg/mL FAC) to each well and samples are incubated for 1 h at 37° C. The wells are washed 3 times with 155 mM NaCl pH 7.2 buffer saline and are soaked 10 seconds between each wash. Non-radioactive binding is performed by adding:
(§3) 10 μL Biotinylated goat F(ab′)2 Anti-mouse IgG. (8.0×10^−4 mg/mL, FAC)
(§4) 10 μL Alk-phos-Sterptavidin (3×10^−3 mg/mL FAC)
(§5) 10 μL Polyclonal antibody for sRAGE (FAC 6.0×10^−3 mg/mL) to 5 mL 50 mM imidazole buffer saline (pH 7.2) containing 0.2% bovine serum albumin and 1 mM CaCl2. The mixture is incubated for 30 minutes at 37° C. 100 μL complex is added to each well and incubation is allowed to proceed at rt for 1 h. Wells are washed 3 times with wash buffer and soaked 10 s between each wash. 100 μL 1 mg/mL (pNPP) in 1 M diethanolamine (pH adjusted to 9.8 with HCl) is added. […] The reaction is quenched with 10 μL of stop solution (0.5 N NaOH in 50% ethanol) and the absorbance is measured spectrophotometrically with a microplate reader at 405 nm.

S-100b/RAGE interaction = biological target: T2, S-100b/RAGE interaction (Homo sapiens, UniProt Q15109); experiment: ELISA assay, S-100b binding to sRAGE; conditions: plate-bound S100b, concentration at which 50% signal is inhibited
T2 construct: generate soluble RAGE (sRAGE) comprised of the V and C domains
T2 sequence (Q15109 23-342 limits assumed): as above
Protocol: as §1, §2, §3, §4, §5

[2] = biological target: T3, β-amyloid—RAGE interaction (Homo sapiens, UniProt Q15109); experiment: ELISA assay, β-amyloid binding to sRAGE; conditions: plate-bound β-amyloid
T3 construct: generate soluble RAGE (sRAGE) comprised of the V and C domains
T3 sequence (Q15109 23-342 limits assumed): as above
Protocol: as §1, §2, §3, §4, §5

Compound: CCCCOc1cc(C(=O)OC)ccc1NC(=O)[C@H](N)Cc1ccc2ccccc2c1 [Example 2, (R)-3-(2-Naphthyl)-2-aminopropionic Acid 4-Methoxycarbonyl-2-butoxyaniline Amide Hydrochloride]
IC50 [1]: 3160 nM
IC50 (S-100b/RAGE interaction): 5100 nM

Compound: CCCCOc1cc(C(=O)OCCN(CC)CC)ccc1NC(=O)[C@@H](Cc1ccc(OCc2ccccc2)cc1)NC(=O)OC(C)(C)C [Example 3, (R)-3-(4-Benzyloxyphenyl)-2-tert-butoxycarbonylaminopropionic Acid 4-Diethylaminoethoxycarbonyl-2-butoxyaniline Amide]
IC50 [1]: 1500 nM
IC50 (S-100b/RAGE interaction): 1320 nM
IC50 [2]: 1500 nM

Compound: CCCCOc1cc(C(=O)OCCN(CC)CC)ccc1NC(=O)[C@H](N)Cc1ccc(OCc2ccccc2)cc1 [Example 4, (R)-3-(4-Benzyloxyphenyl)-2-aminopropionic Acid 4-Diethylaminoethoxycarbonyl-2-butoxyaniline Amide Dihydrochloride]
IC50 [1]: 1120 nM
IC50 (S-100b/RAGE interaction): 820 nM
IC50 [2]: 2200 nM

Compound: CCCCOc1cc(C(=O)OCCN(CC)CC)ccc1NC(=O)[C@@H](Cc1ccc2ccccc2c1)NC [Example 5, (R)-3-(2-Naphthyl)-2-methylaminopropionic Acid 4-Diethylaminoethoxycarbonyl-2-butoxyaniline Amide Dihydrochloride]
IC50 [1]: 1270 nM
IC50 (S-100b/RAGE interaction): 2880 nM
IC50 [2]: 1810 nM

Compound: COC(=O)c1ccc(NC(=O)[C@@H](Cc2ccc(OCc3ccccc3)cc2)NC(=O)OC(C)(C)C)c(O)c1 [Example 6, (R)-3-(4-Benzyloxyphenyl)-2-tert-butoxycarbonylaminopropionic Acid 4-Methoxycarbonyl-2-hydroxyaniline Amide]
IC50 (S-100b/RAGE interaction): 6300 nM

Compound: CC(C)(C)OC(=O)N[C@H](Cc1ccc(OCc2ccccc2)cc1)C(=O)Nc1ccc(C(=O)OC(C)(C)C)cc1OC(C)(C)C [Example 7, (R)-3-(4-Benzyloxyphenyl)-2-tert-butoxycarbonylaminopropionic Acid 4-tert-Butoxycarbonyl-2-tert-butoxyaniline Amide]
IC50 [1]: 8000 nM
IC50 (S-100b/RAGE interaction): 1000 to 3000 nM

Compound: CCN(CC)CCOC(=O)c1ccc(NC(=O)[C@@H](Cc2ccc(OCc3ccccc3)cc2)NC(=O)OC(C)(C)C)c(OCC(C)C)c1 [Example 8, (R)-3-(4-Benzyloxyphenyl)-2-tert-butoxycarbonylaminopropionic Acid 4-Diethylaminoethoxycarbonyl-2-isobutoxyaniline Amide]
IC50 (S-100b/RAGE interaction): 2000 nM

Compound: CCN(CC)CCOC(=O)c1ccc(NC(=O)[C@H](N)Cc2ccc(OCc3ccccc3)cc2)c(OCC(C)C)c1 [Example 9, (R)-3-(4-Benzyloxyphenyl)-2-aminopropionic Acid 4-Diethylaminoethoxycarbonyl-2-isobutoxyaniline Amide Dihydrochloride]
IC50 (S-100b/RAGE interaction): 1600 nM

Compound: CCCCOc1cc(C(=O)OCCN(CC)CC)ccc1NC(=O)[C@@H](Cc1ccccc1)NC(=O)OC(C)(C)C [Example 10, (R)-3-Phenyl-2-tert-butoxycarbonylaminopropionic Acid 4-Diethylaminoethoxycarbonyl-2-butoxyaniline Amide]
IC50 (S-100b/RAGE interaction): 950 nM

Compound: CCCCOc1cc(C(=O)OCCN(CC)CC)ccc1NC(=O)[C@H](N)Cc1ccccc1 [Example 11, (R)-3-Phenyl-2-aminopropionic Acid 4-Diethylaminoethoxycarbonyl-2-butoxyaniline Amide Dihydrochloride]
IC50 (S-100b/RAGE interaction): 10000 to 30000 nM

Compound: CCCCOc1cc(C(=O)OCCN(CC)CC)ccc1NC(=O)[C@@H](Cc1ccc(OCc2ccccc2)cc1)NC(C)C [Example 13, (R)-3-(4-Benzyloxyphenyl)-2-isopropylaminopropionic Acid 4-Diethylaminoethoxycarbonyl-2-butoxyaniline Amide]
IC50 [1]: 700 nM
IC50 (S-100b/RAGE interaction): 1000 nM
IC50 [2]: 1000 nM

Compound: CCCCOc1cc(C(=O)OCCN(CC)CC)ccc1NC(=O)[C@@H](Cc1ccc(OCc2ccccc2)cc1)NCc1ccccc1 [Example 14, (R)-3-(4-Benzyloxyphenyl)-2-benzylaminopropionic Acid 4-Diethylaminoethoxycarbonyl-2-butoxyaniline Amide]
IC50 (S-100b/RAGE interaction): 2800 nM

Compound: CCCCOc1cc(C(=O)OCCN(CC)CC)ccc1NC(=O)[C@@H](Cc1ccc(OCc2ccccc2)cc1)NS(C)(=O)=O [Example 15, (R)-3-(4-Benzyloxyphenyl)-2-methanesulfonylaminopropionic Acid 4-Diethylaminoethoxycarbonyl-2-butoxyaniline Amide]
IC50 (S-100b/RAGE interaction): 10000 to 30000 nM

Compound: CCCCOc1cc(C(=O)OCCN(CC)CC)ccc1NC(=O)[C@@H](Cc1ccc(OCc2ccccc2)cc1)NS(=O)(=O)c1ccccc1 [Example 16, (R)-3-(4-Benzyloxyphenyl)-2-phenylsulfonylaminopropionic Acid 4-Diethylaminoethoxycarbonyl-2-butoxyaniline Amide]
IC50 (S-100b/RAGE interaction): 20000 to 30000 nM

Compound: CCCCOc1cc(C(=O)OCCN(CC)CC)ccc1NC(=O)[C@@H](Cc1ccc(OCc2ccccc2)cc1)NC(=O)NCC [Example 17, (R)-3-(4-Benzyloxyphenyl)-2-ethylcarbamoylaminopropionic Acid 4-Diethylaminoethoxycarbonyl-2-butoxyaniline Amide]
IC50 (S-100b/RAGE interaction): 10000 nM

Compound: CCCCOc1cc(C(=O)OCCN(CC)CC)ccc1NC(=O)[C@@H](Cc1ccc(OCc2ccccc2)cc1)NC(=O)NC(C)(C)C [Example 18, (R)-3-(4-Benzyloxyphenyl)-2-tert-butylcarbamoylaminopropionic Acid 4-Diethylaminoethoxycarbonyl-2-butoxyaniline Amide]
IC50 [1]: 840 nM
IC50 (S-100b/RAGE interaction): 2300 nM
IC50 [2]: 2000 nM

Compound: CCN(CC)CCOc1ccc(NC(=O)[C@@H](Cc2ccc(OCc3ccccc3)cc2)NC(=O)OC(C)(C)C)c(OCCN(CC)CC)c1 [Example 19, (R)-3-(4-Benzyloxyphenyl)-2-tert-butoxycarbonylaminopropionic Acid 4-Diethylaminoethoxy-2-diethylaminoethoxyaniline Amide]
IC50 [1]: 800 nM
IC50 (S-100b/RAGE interaction): 1140 nM
IC50 [2]: 800 nM

Compound: CCN(CC)CCCOc1ccc(NC(=O)[C@@H](Cc2ccc(OCc3ccccc3)cc2)NC(=O)OC(C)(C)C)c(OCCCN(CC)CC)c1 [Example 21, (R)-3-(4-Benzyloxyphenyl)-2-tert-butoxycarbonylaminopropionic Acid 4-(3-Diethylamino-1-propoxy)-2-(3-diethylamino-1-propoxy)aniline Amide]
IC50 [1]: 460 nM
IC50 (S-100b/RAGE interaction): 640 nM
IC50 [2]: 1230 nM

Compound: CCN(CC)CCOC(=O)c1ccc(NC(=O)[C@@H](Cc2ccc(OCc3ccccc3)cc2)NC(=O)OC(C)(C)C)c(OCc2ccco2)c1 [Example 23, (R)-3-(4-Benzyloxyphenyl)-2-tert-butoxycarbonylaminopropionic Acid 4-Diethylaminoethoxycarbonyl-2-(2-furylmethoxy)aniline Amide]
IC50 (S-100b/RAGE interaction): 15500 nM

IC50 (S-100b/RAGE interaction): 2700 nM
Compound: CCN(CC)CCOC(=O)c1ccc(NC(=O)[C@H](N)Cc2ccc(OCc3ccccc3)cc2)c(OCc2ccco2)c1 [Example 24, (R)-3-(4-Benzyloxyphenyl)-2-aminopropionic Acid 4-Diethylaminoethoxycarbonyl)-2-(2-furylmethoxy)aniline Amide Dihydrochloride]

Compound: CCCCOc1cc(C(=O)OCCN(CC)CC)ccc1NC(=O)[C@@H](Cc1ccc2ccccc2c1)NC(C)=O [Example 25, (R)-3-(2-Naphthyl)-2-acetylaminopropionic Acid 4-Diethylaminoethoxycarbonyl-2-butoxyaniline Amide]
IC50 (S-100b/RAGE interaction): 15000 nM

Compound: CCCCOc1cc(C(=O)OCCN(CC)CC)ccc1NC(=O)[C@@H](Cc1ccc(OCc2ccccc2)cc1)NC(C)=O [Example 26, (R)-3-(4-Benzyloxyphenyl)-2-acetylaminopropionic Acid 4-Diethylaminoethoxycarbonyl-2-butoxyaniline Amide]
IC50 (S-100b/RAGE interaction): 5600 nM

Compound: (R)-3-(2-Naphthyl)-2-guanidinylpropionic Acid 4-Diethylaminoethoxycarbonyl-2-butoxyaniline Amide Dihydrochloride [Example 12]
IC50 [1]: 700 nM
IC50 (S-100b/RAGE interaction): 300 to 1000 nM
IC50 [2]: 5000 nM

IC50 [1]: 680 nM
IC50 (S-100b/RAGE interaction): 920 nM
IC50 [2]: 1730 nM
Compound: (R)-3-(4-Benzyloxyphenyl)-2-aminopropionic Acid 4-(3-Diethylamino-1-propoxy)-2-(3-diethylamino-1-propoxyaniline Amide Trihydrochloride [Example 22]

IC50 [1]: 1000 nM
IC50 (S-100b/RAGE interaction): 840 nM
IC50 [2]: 1000 nM
Compound: (R)-3-(4-Benzyloxyphenyl)-2-aminopropionic Acid 4-Diethylaminoethoxy-2-diethylaminoethoxyaniline Amide Trihydrochloride [Example 20]
